# According to PMC11500415, “Chemical inhibition of stomatal differentiation by perturbation of the master-regulatory bHLH heterodimer via an ACT-Like domain” (Nature Communications, 2024):
# Where “and” joins values, the source holds several entries; their conditions need not be identical. Equal values may be shown once.
# Test system: Arabidopsis stomatal development mutants (spch, mute, fama, er, erl1, erl2, hdg2, atml1, scrm, scrm2, scrm-D and suppressors)
# Assay: Stomatal development bioassay in mutant seedlings, liquid culture
# Type: in vivo
# Conditions: 50 μM; for meristemoids density: single seedlings n=8 (Fig. 3c)
# Method: Arabidopsis accession Columbia (Col-0) was used as wild-type. […] Their genotype and transcript reduction were confirmed. The presence of transgenes/mutant alleles were confirmed by genotyping. For liquid culture with Stomidazolone (AYSJ929, compound 3), the analogs (AYSJ1059 (compound 5) and AYSJ1061 (compound 6)), degraded compound lzx103 (compound 4), and SIM3* (compound 7), all compounds were dissolved in dimethyl sulfoxide (DMSO, Molecular biology grade, Fujifilm Wako, Japan 046-21981), Col-0 seeds were sown in 96-well plates (TL5003; True Line) containing 95 μL of 1/2 MS media containing 0.5% sucrose with rotary shaking at 140 rpm under continuous light at 22 °C. Five μL of compounds were dissolved in DMSO at 10 mM and diluted with liquid 1/2 MS media to 1 mM and added on 1-day-old seedlings (final concentration, 50 μM). Seedlings were incubated for 8 days, and at day 9 seedling abaxial cotyledons were observed through confocal microscopy. For liquid culture of scrm-D_S343 and scrm-D_S423, 1/2 MS liquid media without sucrose was used. For the solid culture, 0, 20, 50 or 100 μM Stomidazolone were solidified with low-melting agarose (5805S, PrimeGelTM Agarose LMT 1-20 K, TAKARA Bio). Briefly, 1/2 MS salt, 0.5% sucrose, and 0.8% low melting agarose were mixed in water and autoclaved. After cooling the medium at around 30 °C, Stomidazolone (500x, dissolved in DMSO) was added and poured into 90 mm petri dishes (Asnol Petri Dish JP φ90 x 15 mm, 3-1491-01, AS ONE). Col-0 seeds were sown on Stomidazolone-containing 1/2 MS agarose media and grown under continuous light for 9 days.
# For confocal microscopy, cell peripheries of seedlings were visualized with propidium iodide (Sigma, P4170). Images were acquired using LSM800 or LSM700 (Zeiss) using a 20x lens. The GFP, YFP reporter and PI signals were detected with excitation at 488 nm and an emission filter of 410 to 546 nm, at 488 nm and an emission filter of 410 to 546 nm, and with excitation at 561 nm and 582–617 nm emission range, respectively. Raw data were collected with 1024 × 1024 pixel images. For qualitative image presentation, Adobe Photoshop CC was used to trim and uniformly adjust the contrast/brightness.
# For quantitative analysis of the abaxial leaf epidermis, confocal images were taken on the days after germination as indicated in the Figure legends. Preparation of images was done as described previously[32],[70]. For counting epidermal cell types, stomatal density, stomatal precursor cells (meristemoids), total stomata-lineage cells (stomata and meristemoids) were calculated by counting cell types in an area of 0.4 mm^2 (0.63 mm × 0.63 mm) and plotted as per mm^2. A series of Z-stack confocal images was obtained to obtain images covering the epidermis and capturing GFP/YFP signal from the reporter lines. The area and the number of epidermal cells were quantified by using FIJI-ImageJ. Statistical analyses were performed using R ver. 4.0.2. Sample sizes (n) are indicated and defined in each legend. For the multiple sample comparison, 1-way ANOVA was performed followed by a post hoc Tukey HSD test. For the two-sample comparison, Student’s T-test was performed. Graphs were generated using R ggplot2 package. For all boxplots, each box represents IQR (interquartile range), in which top, middle line, and bottom indicating 75, 50, and 25 percentiles, respectively, and the bar representing maximum to minimal values. Each magenta dot represents jittered individual data point. The datapoints that go beyond the bar are outliers, which are indicated as black dots. If the data point is greater than Q3 + 1.5*IQR (above the third quartile is greater than 1.5 times of the interquartile range) or less than Q1 − 1.5*IQR, that data point is classified as outlier. The color of Boxplot graph was based on ColorBrewer.org. The value of n, the number of each experiment or samples, the means of error bars, and how statistical significance was defined are indicated in a relevant figure legend. […]
# [1] = er erl1, single seedlings n=8 (Fig. 4f)
# [2] = scrm-D_S343, single seedlings n=8 (Fig. 5n)
smiles,measurement,setting,value
O=C1C(c2ccccc2)=NC(NS(=O)(=O)c2ccccc2)(c2ccccc2)N1S(=O)(=O)c1ccccc1 (stereo not shown) [Stomidazolone],effect on epidermal phenotype (in words),er (er-105),the number of stomata drastically decreased and the meristemoids vastly increased
same,effect on epidermal phenotype (in words),er erl1,"did not reduce the number of stomata, although it increased the number of meristemoids"
same,Stomata density,[1],204 per mm2 and 275 per mm2 and 292 per mm2
same,Total (stomata+meristemoid) density,[1],382 per mm2 and 272 per mm2 and 360 per mm2 and 323 per mm2 and 292 per mm2 and 347 per mm2 and 369 per mm2
same,effect on epidermal phenotype (in words),er erl1 erl2,insensitive
same,Meristemoid density,"er erl1 erl2, single seedlings n=8 (Fig. 4j, replotted 4k)",0 per mm2
same,effect on epidermal phenotype (in words),er erl2,The number of arrested meristemoids is even more increased
same,effect on epidermal phenotype (in words),fama,significantly reduced the number of fama tumors whereas increasing the number of arrested meristemoids
same,effect on epidermal phenotype (in words),hdg2,increased the meristemoid numbers of hdg2 epidermis while the total numbers of stomata and meristemoids were unaffected
same,Total (stomata+meristemoid) density,"hdg2 (hdg2-2), single seedlings n=8 (Fig. 4m)",149 per mm2 and 112 per mm2 and 171 per mm2 and 93 per mm2 and 137 per mm2 and 107 per mm2 and 141 per mm2
same,effect on epidermal phenotype (in words),hdg2 atml1,hypersensitivity
same,Total (stomata+meristemoid) density,"hdg2 atml1 (hdg2-2 atml1-3), single seedlings n=8 (Fig. 4o)",92 per mm2 and 141 per mm2 and 156 per mm2 and 153 per mm2 and 112 per mm2 and 109 per mm2
same,effect on epidermal phenotype (in words),mute,not enhanced
same,meristemoids density,mute (mute-1),296 per 1 mm2 and 243 per 1 mm2 and 204 per 1 mm2 and 289 per 1 mm2 and 350 per 1 mm2 and 267 per 1 mm2 and 187 per 1 mm2
same,effect on epidermal phenotype (in words),scrm2-1,reduction of the number of stomata with meristemoid arrests
same,Stomatal index SI (%),"scrm2-1, single seedlings n=8 (Fig. 5f)",25.2% and 23.5% and 22.4% and 18.0% and 27.0% and 24.1% and 26.7% and 15.5%
same,effect on epidermal phenotype (in words),scrm (ice1-2),severely reduced stomatal lineage initiation
same,effect on epidermal phenotype (in words),scrm scrm2-1,no effects
same,Stomatal index SI (%),"scrm scrm2-1, single seedlings n=7 (Fig. 5h)",0%
same,effect on epidermal phenotype (in words),scrm-D,not affected
same,Stomatal index SI (%),"scrm-D, single seedlings n=8 (Fig. 5j)",100.0% and 99.0% and 98.0%
same,SI (%),[2],10.3% and 14.9% and 8.1% and 11.9% and 12.8% and 12.5% and 9.6% and 12.1%
same,small cells index (%),[2],31.8% and 53.1% and 60.4% and 54.1% and 50.8% and 47.7% and 36.1%
same,effect on epidermal phenotype (in words),scrm-D_S343 and scrm-D_S423,triggered excessive formation of arrested meristemoids
same,effect on epidermal phenotype (in words),scrm-D_S343 scrm2-1 and scrm-D_S423 scrm2-1,insensitivity
same,SI (%),"scrm-D_S423, single seedlings n=8 (Fig. 5p)",0.7% and 1.2% and 0.0% and 1.4% and 3.0%
same,effect on epidermal phenotype (in words),spch,no effects
same,meristemoids density,spch (spch-3),0 per 1 mm2
